Results as given in patent US20210353579A1, “HIGH PENETRATION COMPOSITIONS AND USES THEREOF” (Techfields Pharma Co., Ltd., priority 2006, published 2021).
Read-outs that look alike come from different tables or passages of the source.

Columns and labels:
Chinese white rabbits = assay: Malassezia-induced lesions similar to psoriasis; assay type: in vivo, rabbit; settings: 5% aqueous solution twice per day, 10 days after application
Text: Heavy suspensions of Malassezia [Rosenberg, E. W., et al., Mycopathologia, 72, 147-154 (1980)] were applied to the shaved skin on the backs of the Chinese white rabbits (n=4×6) twice (at 7 am and 7 pm) per day for 2 weeks, lesions similar to psoriasis resulted.

mice = assay: Analgesic activity, acetic acid writhing; assay type: in vivo
Protocol: The prodrug compounds are administered either transdermally or orally. The parent compounds are administered orally. The number of writhing that occurred when mice are administered the acetic acid solution are counted, and the rate of inhibition based on the control group which was not pretreated with any test compounds is calculated. […] The A group is the control group.

human skin tissue = settings: pH 7.4
rats = assay: Antipyretic activity, E. coli suspension as pyrogen; assay type: in vivo; settings: in °C (unit assumed)
Protocol: Rats are administered with sterilized E. coli suspension as a pyrogen. Each group of rats are administered with a prodrug compounds or parent compounds at a dosage specified below. The prodrug compounds are administered either orally or transdermally. The parent compounds are administered orally.

[1] = Plasma levels after transdermal administration to hairless mice; assay type: in vivo; settings: mouse, in vivo
Protocol: Tested compounds (20% solution or suspension in 1 mL isopropanol) are administered transdermally to the skin of intact hairless mice. The plasma levels of the parent compounds are determined by HPLC.

[2] = test system: Human breast cancer cells (BCAP-37); assay: Human breast cancer xenograft in nude mice, topical; settings: day 42, 30 μl of 5% (1.5 mg) topically every 8 hours from day 14; for Tumor size: control 800 ± 100
Protocol: Human breast cancer cells (BCAP-37, 2-3 mm^3 of tumor tissue was used in each mouse) are subcutaneously xenografted into the front leg of nude mice (BALB, 12 groups, 7 mice each group). […] Then 30 μl of 5% (equal to 1.5 mg of the HPPs) diethylaminoethyl acetylsalicylate.acetylsalicylic acid salt (P-1, in acetone); 1-piperidinepropyl 2[(2,6-dichlorophenyl)amino]benzene acetate.AcOH (P-2, in water), 1-pyrrolidinepropyl 2-(3-benzoylphenyl) propionate.AcOH (P-3, in water), 4-piperidinemethyl 2-(3-phenoxyphenyl)propionate.AcOH (P-4, in water), 3-piperidinemethyl 2-(ρ-isobutylphenyl) propionate.AcOH (P-5, in water), diethylaminoethyl 1-(p-chlorobenzoyl)-5-methoxy-2-methylindole 3-acetate.AcOH (P-11, in water), 2-(4-morpholinyl)ethyl (Z)-5-fluoro-2-methyl-1-[(4-methylsulfinyl) phenylmethylene]-1H-indene-3-acetate.AcOH (P-12, in water), diethylaminoethyl

[3] = test system: Human colon cancer cells (LS174J); assay: Human colon cancer xenograft in nude mice, topical; settings: day 30, about 30 μl of 5% solution (1.5 mg) topically applied
Text: Human colon cancer cells (LS174J, 2-3 mm^3 of tumor tissue was used in each mouse) are subcutaneously xenografted into the front leg of nude mice (BALB).

[4] = 100 mg/kg transdermally, 30 min before acetic acid
[5] = 50 mg/kg transdermally, 60 minutes before acetic acid
[6] = 100 mg/kg transdermally, 60 minutes before acetic acid
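Throughout, for LD50 of HPP: acute toxicity in rats expressed as LD50, determined for both prodrugs and their parent compounds.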

Row | Compound | % (rate of writhing inhibition) (mice; [4]) | No. of Writhing (mice; [4]) | In vitro penetration rate (apparent flux), prodrug compounds (human skin tissue) | body temperature, t = 0 min (rats; 100 mg/kg transdermally) | body temperature, t = 90 min (rats; 100 mg/kg transdermally) | body temperature, t = 180 min (rats; 100 mg/kg transdermally) | body temperature, t = 270 min (rats; 100 mg/kg transdermally) | Peak plasma concentration of parent compound after prodrug compound [1] | t, time to peak plasma level of parent compound after prodrug compound [1] | Tumor size [2] | LD50 of HPP (rat; rats) | Tumor size [3] | further results
1 | CC(=O)O.CCN(CC)CCOC(=O)COC(=O)Cc1c(C)n(C(=O)c2ccc(Cl)cc2)c2ccc(OC)cc12 [diethylaminoethyl 1-(4-chlorobenzoyl-5-methoxy-2-methyl-1H-indole-3-acetoxyacetate.AcOH] | 55% | 15.6 | 1200 μg/cm^2/h | 37.21 ± 0.06 | 36.75 ± 0.05 | 36.62 ± 0.08 | 36.58 ± 0.07 | 20 mg/L | 50 min | – | – | – | LD50 of HPP (rat; rat, in vivo): 1200 mg/kg; lesions similar to psoriasis (Chinese white rabbits): the lesions were resolved
2 | CC(=O)O.CCN(CC)CCOC(=O)Cc1ccccc1Oc1ccc(Cl)cc1Cl [diethylaminoethyl 2-(2,4-dichlorophenoxy)benzeneacetate.AcOH] | 59% | 14.2 | 1500 μg/cm^2/h | 37.22 ± 0.06 | 36.65 ± 0.06 | 36.58 ± 0.08 | 36.56 ± 0.07 | 20 mg/L | 50 min | 280 ± 50 mm^3 | 200 mg/kg | – | –
3 | CC(=O)O.Nc1c(CC(=O)OCCN2CCOCC2)cccc1C(=O)c1ccccc1 [P-16, 2-(4-morpholinyl)ethyl 2-amino-3-benzoylbenzeneacetate.AcOH] | – | – | – | – | – | – | – | – | – | – | – | 550 ± 150 mm^3 | –
4 | N-(2-thiazolyl)-4-N,N-dimethylaminobutyryloxy-2-methyl-2H,1,2-benzothiazine-3-carboxamide 1,1-dioxide.HCl | – | – | 1500 μg/cm^2/h | – | – | – | – | 20 mg/L | 50 min | – | 670 mg/kg | 690 ± 250 mm^3 | % (rate of writhing inhibition) (mice; [5]): 55%; No. of Writhing (mice; [5]): 15.7; body temperature, t = 0 min (rats; 25 mg/kg transdermally): 37.50 ± 0.07; body temperature, t = 90 min (rats; 25 mg/kg transdermally): 36.61 ± 0.04; body temperature, t = 180 min (rats; 25 mg/kg transdermally): 36.50 ± 0.07; body temperature, t = 270 min (rats; 25 mg/kg transdermally): 36.60 ± 0.05
5 | CC(=O)O.CCN(CC)CCOC(=O)C(C)c1ccc2c(c1)C(=O)Cc1cc(C)ccc1O2 (centres unmarked) [diethylaminoethyl 2-(8-methyl-10, 11-dihydro-11-oxodibenz(b,f)oxepin-2-yl)propionate.AcOH] | 61% | 13.8 | 4100 μg/cm^2/h | 37.26 ± 0.07 | 36.80 ± 0.06 | 36.70 ± 0.05 | 36.57 ± 0.08 | 2000 mg/L | 50 min | 250 ± 50 mm^3 | – | – | –
6 | CC(=O)O.CCN(CC)CCOC(=O)Cc1cn(-c2ccccc2)nc1-c1ccc(Cl)cc1 [diethylaminoethyl 3-(4-chlorophenyl)-1-phenyl-1H-pyrazole-4-acetate.AcOH] | 57% | 15.2 | – | 37.22 ± 0.07 | 36.82 ± 0.06 | 36.80 ± 0.05 | 36.77 ± 0.08 | 20 mg/L | 50 min | – | 1200 mg/kg | – | lesions similar to psoriasis (Chinese white rabbits): the lesions were resolved
7 | CC(=O)O.CCN(CC)CCOC(=O)c1ccccc1Nc1c(Cl)ccc(C)c1Cl [diethylaminoethyl 2-[(2,6-dichloro-3-methylphenyl)amino]benzoate.AcOH] | – | – | 2000 μg/cm^2/h | 37.28 ± 0.06 | 36.68 ± 0.05 | 36.62 ± 0.08 | 36.58 ± 0.07 | 20 mg/L | 50 min | – | 1000 mg/kg | 490 ± 150 mm^3 | % (rate of writhing inhibition) (mice; [6]): 59%; No. of Writhing (mice; [6]): 14.2
8 | CC(=O)O.CC(C(=O)OCC1CCNCC1)c1cccc(Oc2ccccc2)c1 (centres unmarked) [P-4, 4-piperidinemethyl 2-(3-phenoxyphenyl)propionate.AcOH] | – | – | – | – | – | – | – | – | – | 180 ± 50 mm^3 | – | 480 ± 120 mm^3 | –
9 | CC(=O)O.CCN(CC)CCOC(=O)c1ccccc1Nc1cccc(C)c1C [diethylaminoethyl 2-[(2,3-dimethylphenyl)amino]benzoate.AcOH] | – | – | 2100 μg/cm^2/h | 37.35 ± 0.06 | 36.71 ± 0.05 | 36.60 ± 0.08 | 36.59 ± 0.07 | 20 mg/L | 50 min | – | 900 mg/kg | 650 ± 250 mm^3 | % (rate of writhing inhibition) (mice; [6]): 55%; No. of Writhing (mice; [6]): 15.6
10 | CC(=O)O.CCN(CC)CCOC(=O)C(C)c1ccc2c(c1)CC(=O)c1ccccc1S2 (centres unmarked) [diethylaminoethyl 2-(10, 11-dihydro-10-oxodibenzo(b,f)thiepin-2-yl)propionate.AcOH] | 59% | 14.2 | 3700 μg/cm^2/h | 37.25 ± 0.06 | 36.71 ± 0.05 | 36.65 ± 0.08 | 36.64 ± 0.07 | 2000 mg/L | 50 min | – | – | 480 ± 180 mm^3 | –
11 | CC(=O)O.O=C(Cc1ccccc1Nc1c(Cl)cccc1Cl)OCCCN1CCCCC1 [P-2, 1-piperidinepropyl 2[(2,6-dichlorophenyl)amino]benzene acetate.AcOH] | – | – | – | – | – | – | – | – | – | 180 ± 50 mm^3 | – | 480 ± 180 mm^3 | Mouse weight ([2]; control 22 ± 2): 22 ± 2 g; Mouse weight [3]: 22 ± 2 g
12 | CN(C)CCCC(=O)OC1=C(C(=O)Nc2ccccn2)N(C)S(=O)(=O)c2ccccc21.Cl [4-N,N-dimethylaminobutyryloxy-2-methyl-N-2-pyridinyl-2H,1,2-benzothiazine-3-carboxamide 1,1-dioxide.HCl] | – | – | 1700 μg/cm^2/h | – | – | – | – | 20 mg/L | – | 390 ± 50 mm^3 | 550 mg/kg | – | % (rate of writhing inhibition) (mice; [5]): 55%; No. of Writhing (mice; [5]): 15.6; body temperature, t = 0 min (rats; 25 mg/kg transdermally): 37.57 ± 0.06; body temperature, t = 90 min (rats; 25 mg/kg transdermally): 36.51 ± 0.05; body temperature, t = 180 min (rats; 25 mg/kg transdermally): 36.40 ± 0.06; body temperature, t = 270 min (rats; 25 mg/kg transdermally): 36.45 ± 0.07
13 | CC(=O)O.CC(C(=O)OCCCN1CCCC1)c1cccc(C(=O)c2ccccc2)c1 (centres unmarked) [P-3, 1-pyrrolidinepropyl 2-(3-benzoylphenyl) propionate.AcOH] | – | – | – | – | – | – | – | – | – | 200 ± 50 mm^3 | – | 500 ± 150 mm^3 | –
